Laboratory results reported in US8362031B2, “Lonidamine analogues and treatment of polycystic kidney disease” (University of Kansas, priority 2004, dated 2013).
“Also recorded” adds a separate entry of the source.

Experiments:
[1] = tested on: CFTR-mediated chloride transport; experiment: Forskolin-induced short-circuit current in ADPKD cell monolayers; assay type: cell-based, human
Experimental: To determine if the ability of GMZ to inhibit cAMP-stimulated tubule expansion was due to inhibition of CFTR-mediated chloride transport, forskolin-induced short-circuit current was measured with cyst-lining epithelial cells derived from two human ADPKD (autosomal dominant PKD) kidneys. FSK is an adenylyl cyclase agonist, which increases the levels of intracellular cAMP. The cAMP then opens the CFTR chloride channel. […] The bars in FIG. 12G show the results for the three treatments. 1 microM gamendazole applied to the apical side of the cell monolayer was effective in inhibiting greater than 40 percent of the forskolin-stimulated transepithelial chloride transport.

Male Long Evans rats = experiment: In vivo antispermatogenic testing in Long Evans rats
[2] = target: Hsp82 (the yeast homologue of Hsp90) (Saccharomyces cerevisiae, UniProt P02829); experiment: Cross-linking of biotinylated analogue to purified protein, competition with excess RC-MC-110; assay type: binding; details: 10-fold excess of RC-MC-110, purified protein, UV cross-linking
Hsp82 (the yeast homologue of Hsp90), sequence (P02829 whole entry): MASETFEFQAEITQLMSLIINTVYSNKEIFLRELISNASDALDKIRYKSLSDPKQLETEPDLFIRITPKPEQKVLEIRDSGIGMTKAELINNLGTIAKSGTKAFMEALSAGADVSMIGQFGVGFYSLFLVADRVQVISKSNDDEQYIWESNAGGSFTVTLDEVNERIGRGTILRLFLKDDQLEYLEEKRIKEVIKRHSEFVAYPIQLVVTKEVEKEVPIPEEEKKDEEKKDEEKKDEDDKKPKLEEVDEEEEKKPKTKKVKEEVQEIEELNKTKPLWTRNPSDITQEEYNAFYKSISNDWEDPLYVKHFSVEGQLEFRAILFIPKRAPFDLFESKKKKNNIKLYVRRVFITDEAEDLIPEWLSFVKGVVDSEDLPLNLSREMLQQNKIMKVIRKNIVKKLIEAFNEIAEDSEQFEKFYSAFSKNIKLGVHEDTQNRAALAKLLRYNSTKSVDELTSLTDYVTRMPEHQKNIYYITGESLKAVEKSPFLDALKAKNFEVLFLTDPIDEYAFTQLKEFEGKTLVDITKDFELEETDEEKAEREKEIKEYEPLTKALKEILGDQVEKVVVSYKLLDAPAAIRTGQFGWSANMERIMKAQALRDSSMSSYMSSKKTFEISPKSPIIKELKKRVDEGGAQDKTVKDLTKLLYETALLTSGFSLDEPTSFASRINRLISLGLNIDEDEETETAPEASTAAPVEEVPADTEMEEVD
Experimental: In this example, the binding of cross-linked biotinylated RC-MC-110 ([…]) to Hsp82 (the yeast homologue of Hsp90) was investigated by a cross-linking and biotinylated analogue of RC-MC-110.
The buffer solution in this examples was comprised of 50 mM Tris-HCl, pH 7.4, 50 mM NaCl, 5 mM EDTA, and 50 mM NaF.
First, the protein was diluted with the buffer solution above to give a final concentration of 0.278 mg/ml. The stock protein concentration was 22 mg/ml in 5 μl aliquots.
Next the drug was diluted as follows. Stock concentrations of RC-MC-210 (see structure below) were 0.6 mg/ml (cross-linked biotinylated analogue of RC-MC-110). A 300 μl aliquot was thawed, and separated into two 150 μl aliquots. Dilutions were in the order of 1, ½, ¼, ⅛, 1/16 of the stock solutions. The stock concentration of the competition solution was 0.6 mg/ml RC-MC-210 (549 μM), and about 0.9 mg of RC-MC-110 was dissolved in 150 μl of RC-MC-210 solution to give a final concentration of 6 mg/ml (14.5 mM).
The competition solution had the same concentration of RC-MC-210, but a 10-fold excess of RC-MC-110 (non-biotinylated) to its respective concentration (e.g: ½ RC-MC-210, then the RC-MC-110 was 10× that concentration.)
To prepare of the incubation reactions, 18 μl of protein from a 0.277 mg/ml diluted stock (about 5 μg of protein) was incubated with 2 μl of drug for 1 hr at 4° C. with gentle rocking. […]

| SMILES | inhibition at 1 µM ([1]; Homo sapiens, 1 microM applied to the apical side, 10 microM forskolin, read-out: inhibition of the forskolin-stimulated transepithelial chloride transport) [%] | forskolin-induced Cl-secretion (short-circuit current) ([1]; human ADPKD cells, in the presence of benzamil) | Concentration needed to inhibit CFTR-mediated chloride channel activity, compared with lonidamine ([1]; human cyst epithelial cells (ADPKD cells)) | Mortality (25 mg/kg) (Male Long Evans rats; 25 mg/kg single i.p. injection, […]) | Response 25 mg/kg (Male Long Evans rats; 25 mg/kg single i.p. injection, animals responding out of animals surviving, five days following injection) | Mortality (200 mg/kg) (Male Long Evans rats; 200 mg/kg single i.p. injection, […]) | Response 200 mg/kg (Male Long Evans rats; 200 mg/kg single i.p. injection, animals responding out of animals surviving, five days following injection) | Competition of the binding of the cross-linked biotinylated analogue to Hsp82 [2] |
| --- | --- | --- | --- | --- | --- | --- | --- | --- |
| O=C(O)CCc1nn(Cc2ccc(Cl)cc2Cl)c2cc(C(F)(F)F)ccc12 [GMZ, 3-[1-(2,4-dichlorobenzyl)-6-trifluoromethyl-1H-indazol-3-yl]-propionic acid] | > 40 | almost completely block | at much lower concentration; also recorded: effective at lower doses than was Lonidamine itself | – | – | – | – | – |
| O=C(O)/C=C/c1nn(Cc2ccc(Cl)cc2Cl)c2cc(C(F)(F)F)ccc12 [RC-MC-110, trans 3-[1-(2,4-dichlorobenzyl)-6-trifluoromethyl-1H-indazol-3-yl]-acrylic acid] | – | – | – | 0/5 | 5/5 | 3/5 | 2/2 | the binding competes with excess RC-MC-110 |
